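Exposure lasted 48 hours, with cells grown in 96-well plates and compounds tested at five concentrations. At the GI50, growth is halved.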 Activity calls are given as the source filed them. No stated cut-off is given here; in the data, active = GI50 up to about 1.1 µM and inactive = higher.
Tests used:
Test in all cases: growth of human tumour cells (NCI), 48 h
SF-539 = tested on: SF-539
SK-MEL-5 = tested on: SK-MEL-5
OVCAR-4 = tested on: OVCAR-4
M14 = tested on: M14
HCT-15 = tested on: HCT-15
ACHN = tested on: ACHN
HOP-62 = tested on: HOP-62
RXF 393 = tested on: RXF 393
SNB-19 = tested on: SNB-19
SK-OV-3 = tested on: SK-OV-3
HT-29 = tested on: HT-29
SK-MEL-28 = tested on: SK-MEL-28
HCT-116 = tested on: HCT-116
OVCAR-3 = tested on: OVCAR-3
LOX IMVI = tested on: LOX IMVI
OVCAR-5 = tested on: OVCAR-5
SK-MEL-2 = tested on: SK-MEL-2
NCI-H226 = tested on: NCI-H226

| Compound | GI50 (SF-539) | GI50 (SK-MEL-5) | GI50 (OVCAR-4) | GI50 (M14) | GI50 (HCT-15) [µM] | GI50 (ACHN) | GI50 (HOP-62) | GI50 (RXF 393) | GI50 (SNB-19) | GI50 (SK-OV-3) | GI50 (HT-29) | GI50 (SK-MEL-28) | GI50 (HCT-116) | GI50 (OVCAR-3) | GI50 (LOX IMVI) | GI50 (OVCAR-5) | GI50 (SK-MEL-2) | GI50 (NCI-H226) |
| --- | --- | --- | --- | --- | --- | --- | --- | --- | --- | --- | --- | --- | --- | --- | --- | --- | --- | --- |
| CC1(C)Oc2ccccc2[N+]([O-])=C1c1ccccc1 | > 100 µM (inactive) | > 100 µM (inactive) | > 100 µM (inactive) | > 100 µM (inactive) | > 100 | > 100 µM (inactive) | > 100 µM (inactive) | > 100 µM (inactive) | > 100 µM (inactive) | > 100 µM (inactive) | > 100 µM (inactive) | > 100 µM (inactive) | > 100 µM (inactive) | > 100 µM (inactive) |  |  |  |  |
| COc1ccc(/C=C2\C(=O)N(C(=O)Cc3ccccc3)N=C2C)cc1OC | > 100 µM (inactive) |  | > 100 µM (inactive) | > 100 µM (inactive) | > 100 | > 100 µM (inactive) | > 100 µM (inactive) |  | > 100 µM (inactive) |  | > 100 µM (inactive) | > 100 µM (inactive) | > 100 µM (inactive) | > 100 µM (inactive) | > 100 µM (inactive) | > 100 µM (inactive) | > 100 µM (inactive) | > 100 µM (inactive) |
| COc1ccc(NC(=O)/C(=N/O)C(C)=O)cc1 | > 100 µM (inactive) | > 100 µM (inactive) |  | > 100 µM (inactive) | 17.5 | > 100 µM (inactive) | > 100 µM (inactive) | > 100 µM (inactive) | > 100 µM (inactive) | > 100 µM (inactive) | > 100 µM (inactive) | > 100 µM (inactive) | 96.8 µM (inactive) |  | 30.8 µM (inactive) | > 100 µM (inactive) | > 100 µM (inactive) | > 100 µM (inactive) |
| NNC(=S)N/N=C(/C(=O)Nc1ccc([N+](=O)[O-])cc1)c1nc2ccc([N+](=O)[O-])cc2nc1O | > 100 µM (inactive) | 45.5 µM (inactive) | > 100 µM (inactive) | > 100 µM (inactive) | 74.6 | 95.3 µM (inactive) |  |  |  | > 100 µM (inactive) | > 100 µM (inactive) | > 100 µM (inactive) | > 100 µM (inactive) |  | > 100 µM (inactive) | > 100 µM (inactive) | > 100 µM (inactive) | > 100 µM (inactive) |
| CC(C1=CC=C2[C@@H]3CCC4CC(N(C)C)CC[C@]4(C)C3CC[C@]12C)N(C)C=O (stereo not given in full) | > 100 µM (inactive) | > 100 µM (inactive) | > 100 µM (inactive) | > 100 µM (inactive) | > 100 | > 100 µM (inactive) | > 100 µM (inactive) | > 100 µM (inactive) | > 100 µM (inactive) | > 100 µM (inactive) | 25.3 µM (inactive) | > 100 µM (inactive) | > 100 µM (inactive) | > 100 µM (inactive) | 25.7 µM (inactive) | > 100 µM (inactive) | > 100 µM (inactive) |  |
| O=C(c1ccccc1)n1cc(/C=C/[N+](=O)[O-])c2ccccc21 | 21.4 µM (inactive) | 34.8 µM (inactive) | 27 µM (inactive) | 20.8 µM (inactive) | 19.5 | > 100 µM (inactive) | > 100 µM (inactive) | 20.5 µM (inactive) | 30.7 µM (inactive) | > 100 µM (inactive) | 44.2 µM (inactive) | 18.5 µM (inactive) | 17.9 µM (inactive) | 51.8 µM (inactive) | 15.2 µM (inactive) | > 100 µM (inactive) | 19.9 µM (inactive) |  |
| N#C/N=C(/N)NCN/C(N)=N\C#N | > 100 µM (inactive) | > 100 µM (inactive) | 59.4 µM (inactive) | > 100 µM (inactive) | 22.3 | > 100 µM (inactive) | > 100 µM (inactive) | 73.3 µM (inactive) | > 100 µM (inactive) | > 100 µM (inactive) | > 100 µM (inactive) | > 100 µM (inactive) | > 100 µM (inactive) | > 100 µM (inactive) |  | > 100 µM (inactive) | > 100 µM (inactive) | > 100 µM (inactive) |
| CCC12CCCN(Cc3ccccc3)C1c1c(n(C)c3ccccc13)[C@H](C(=O)OC)C2 (stereo not given in full) | > 239 µM (inactive) | 142 µM (inactive) |  |  | 85.7 | > 239 µM (inactive) | > 239 µM (inactive) | > 239 µM (inactive) | > 239 µM (inactive) | > 239 µM (inactive) | 32 µM (inactive) | > 239 µM (inactive) | 146 µM (inactive) | > 239 µM (inactive) | > 239 µM (inactive) | 147 µM (inactive) | > 239 µM (inactive) | > 239 µM (inactive) |
| CCOC(=O)/C(=C/c1cccc(Cl)c1)N(CC)CC | 73.5 µM (inactive) | 41.1 µM (inactive) | 47.1 µM (inactive) | 64.3 µM (inactive) | 38.7 | 35.5 µM (inactive) | 29.9 µM (inactive) |  |  | 35.1 µM (inactive) | > 100 µM (inactive) | 90.8 µM (inactive) | 37.4 µM (inactive) |  | 81.8 µM (inactive) | > 100 µM (inactive) | 29.6 µM (inactive) | 37.8 µM (inactive) |
| COC(=O)C(=Cc1cc(OC)c(OC)c(OC)c1-c1cc2c(cc1C1(C)OCCS1)OCO2)C(=O)OC (stereo not given) | 40.6 µM (inactive) | 26.4 µM (inactive) |  |  | 24.7 | 55.3 µM (inactive) | 29.2 µM (inactive) | 26.7 µM (inactive) | 98.9 µM (inactive) | 38.3 µM (inactive) | 37 µM (inactive) | 33.4 µM (inactive) | 24.6 µM (inactive) | 15.2 µM (inactive) | 22.6 µM (inactive) | > 100 µM (inactive) | 21.1 µM (inactive) | 32.2 µM (inactive) |
| CCOP(=O)(OCC)C1=NC=CC=CC1n1c(-c2ccccc2)nn(CC)c1=O (stereo not given) | > 100 µM (inactive) | > 100 µM (inactive) |  |  | > 100 | > 100 µM (inactive) | > 100 µM (inactive) | > 100 µM (inactive) | > 100 µM (inactive) | > 100 µM (inactive) | > 100 µM (inactive) | > 100 µM (inactive) | > 100 µM (inactive) | > 100 µM (inactive) | > 100 µM (inactive) |  | > 100 µM (inactive) | > 100 µM (inactive) |
| COc1cccc(C2CC23C(=O)NC(=O)NC3=O)c1 (stereo not given) | > 100 µM (inactive) | > 100 µM (inactive) | > 100 µM (inactive) | > 100 µM (inactive) | > 100 | > 100 µM (inactive) | > 100 µM (inactive) |  | > 100 µM (inactive) | > 100 µM (inactive) | > 100 µM (inactive) | > 100 µM (inactive) | > 100 µM (inactive) | > 100 µM (inactive) | > 100 µM (inactive) | > 100 µM (inactive) | > 100 µM (inactive) | > 100 µM (inactive) |
| CC(C)c1ccccc1NC(=O)C(=O)Cc1nc2ccccc2s1 | > 100 µM (inactive) | > 100 µM (inactive) | > 100 µM (inactive) | > 100 µM (inactive) | > 100 | > 100 µM (inactive) | > 100 µM (inactive) | > 100 µM (inactive) | > 100 µM (inactive) | > 100 µM (inactive) | > 100 µM (inactive) | > 100 µM (inactive) | > 100 µM (inactive) | > 100 µM (inactive) |  |  | > 100 µM (inactive) | > 100 µM (inactive) |
